Patent US20230310413A1, “PHARMACEUTICAL FORMULATIONS COMPRISING A MALT1 INHIBITOR AND A MIXTURE OF POLYETHYLENE GLYCOL WITH A FATTY ACID” (JANSSEN PHARMACEUTICA NV, priority 2020, published 2023)
Where two headings read alike, the source gives them in different places.

Assay: Pharmacokinetics of Compound A after single oral administration at 200 mg in fasted and fed dogs
Format: in vivo, male beagle dogs
Conditions: 200 mg oral dose; for AUC(0-t) / Tmax / half-life / Cmax: male, po, 200 mg; for Tmax: median; for half-life: N = 2, poor linear regression; for Cmax: Gelucire 50/13 size 00 hard gelatin capsule, N=3
Protocol: Example 8: Pharmacokinetics of Compound a after Single Oral Administration at 200 Mg in Fasted and Fed Dogs
A pharmacokinetic (PK) study was carried out using a Compound A stearoyl polyoxy-32 glycerides formulation.
A formulation of compound A and stearoyl polyoxy-32 glycerides (Gelucire® 50/13) in size 00 hard gelatin capsules (200 mg dose per capsule), according to Table 3, was administered orally to male beagle dogs (N=3) in a fasted state as well as a fed state.

[1] = beagle, dog, plasma, fasted male dogs, Gelucire 50/13 hard gelatin capsule
[2] = beagle, dog, plasma, fed male dogs, Gelucire 50/13 hard gelatin capsule

For O=C(Nc1ccnc(C(F)(F)F)c1)c1cnn(-c2cccc3c(=O)[nH]ccc23)c1C(F)(F)F [Compound A, 1-(1-oxo-1,2-dihydroisoquinolin-5-yl)-5-(trifluoromethyl)-N-(2-(trifluoromethyl)pyridin-4-yl)-1H-pyrazole-4-carboxamide], the AUC(0-inf) (beagle, dog, plasma, fasted male dogs, Gelucire 50/13 hard gelatin capsule, mean) was 578 µg·h/mL, the “Fed vs Fasted” value (fed male dogs, fasted group as reference) was 1.3 and the AUC(0-t) (beagle, dog, plasma, fasted male dogs, Gelucire 50/13 hard gelatin capsule, mean, read-out: AUC0-24 h) was 246 µg·h/mL. It also gave an AUC(0-t) (beagle, dog, plasma, fasted male dogs, Gelucire 50/13 hard gelatin capsule, mean, read-out: AUC0-96 h) of 521 µg·h/mL, a Tmax [1] of 2 h and a half-life [1] of 30 h. For the same molecule, the Cmax (beagle, dog, plasma, fasted male dogs, mean) was 16000 ng/mL, the AUC(0-t) (beagle, dog, plasma, fed male dogs, Gelucire 50/13 hard gelatin capsule, mean, read-out: AUC0-24 h) was 121 µg·h/mL and the AUC(0-t) (beagle, dog, plasma, fed male dogs, Gelucire 50/13 hard gelatin capsule, mean, read-out: AUC0-96 h) was 502 µg·h/mL. It also gave a Tmax [2] of 24 h, a half-life [2] of 34 h and a Cmax (beagle, dog, plasma, fed male dogs, mean) of 9330 ng/mL.
